Data on 42 compounds can be found in ChEMBL document CHEMBL3039007, “Structure-based identification of OATP1B1/3 inhibitors” (Mol Pharmacol, 2013).

Data set [1] deals with T1, Solute carrier organic anion transporter family member 1B1 (Homo sapiens, UniProt Q9Y6L6).
T1 sequence (Q9Y6L6 whole entry): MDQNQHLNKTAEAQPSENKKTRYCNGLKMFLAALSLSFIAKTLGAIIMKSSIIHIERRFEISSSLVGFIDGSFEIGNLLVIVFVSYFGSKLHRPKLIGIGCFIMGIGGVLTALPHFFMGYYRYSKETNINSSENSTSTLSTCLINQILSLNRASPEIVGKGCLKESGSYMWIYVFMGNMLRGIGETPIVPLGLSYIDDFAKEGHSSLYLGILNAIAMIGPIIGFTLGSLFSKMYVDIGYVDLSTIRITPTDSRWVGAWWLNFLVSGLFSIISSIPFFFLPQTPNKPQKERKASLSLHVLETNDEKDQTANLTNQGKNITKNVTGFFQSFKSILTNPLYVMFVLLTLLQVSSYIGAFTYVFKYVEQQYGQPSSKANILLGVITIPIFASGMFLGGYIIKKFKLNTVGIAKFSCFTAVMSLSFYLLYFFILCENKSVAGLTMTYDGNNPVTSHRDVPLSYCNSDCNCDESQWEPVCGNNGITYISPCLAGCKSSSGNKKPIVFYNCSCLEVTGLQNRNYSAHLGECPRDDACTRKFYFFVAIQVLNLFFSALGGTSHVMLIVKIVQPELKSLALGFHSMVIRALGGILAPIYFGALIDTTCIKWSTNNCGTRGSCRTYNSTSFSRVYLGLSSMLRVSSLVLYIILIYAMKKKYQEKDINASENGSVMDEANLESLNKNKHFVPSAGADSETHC
To be noted: chinese hamster, cho, 10 µM.

For data set [2], the target named is T2, Solute carrier organic anion transporter family member 1B3 (Homo sapiens, UniProt Q9NPD5).
T2 sequence (Q9NPD5 whole entry): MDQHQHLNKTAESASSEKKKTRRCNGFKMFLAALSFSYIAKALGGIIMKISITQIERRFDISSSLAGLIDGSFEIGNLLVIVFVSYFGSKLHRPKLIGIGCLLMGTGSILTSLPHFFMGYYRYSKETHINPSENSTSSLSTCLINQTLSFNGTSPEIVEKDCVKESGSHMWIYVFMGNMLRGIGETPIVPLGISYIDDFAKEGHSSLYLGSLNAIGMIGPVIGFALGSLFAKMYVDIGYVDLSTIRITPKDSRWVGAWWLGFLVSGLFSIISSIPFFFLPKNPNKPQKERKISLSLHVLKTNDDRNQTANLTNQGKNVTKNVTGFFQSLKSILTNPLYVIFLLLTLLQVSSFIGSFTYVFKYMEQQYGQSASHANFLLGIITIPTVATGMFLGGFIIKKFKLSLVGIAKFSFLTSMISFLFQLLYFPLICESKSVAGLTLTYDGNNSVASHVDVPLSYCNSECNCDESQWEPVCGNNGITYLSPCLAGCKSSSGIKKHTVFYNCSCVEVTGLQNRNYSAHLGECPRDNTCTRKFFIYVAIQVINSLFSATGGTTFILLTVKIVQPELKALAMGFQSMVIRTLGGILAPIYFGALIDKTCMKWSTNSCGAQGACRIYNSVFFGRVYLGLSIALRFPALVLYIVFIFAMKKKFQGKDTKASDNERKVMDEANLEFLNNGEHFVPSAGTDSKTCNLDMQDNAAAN
The note with it: chinese hamster, cho, 10 µM.

For `COc1ccc2c(=O)ccoc2c1` [7-METHOXYCHROMONE], the residual activity in data set [1] was 91.79%; in data set [2] it was 95.23%.
`C[C@@H]1CC[C@@]2(OC1)O[C@H]1C[C@H]3[C@@H]4CC[C@H]5C[C@@H](O)CC[C@]5(C)[C@H]4CC[C@]3(C)[C@H]1[C@@H]2C` [TIGOGENIN]: the residual activity came out at 97% in data set [1] and 106.8% in data set [2].
For `CC(=O)OC[C@H]1O[C@@H](Oc2cc(OC(C)=O)c3c(=O)cc(-c4ccc(OC(C)=O)cc4)oc3c2)[C@H](OC(C)=O)[C@@H](OC(C)=O)[C@@H]1OC(C)=O` [COSMOSIIN HEXAACETATE], the residual activity in data set [1] is recorded as 95.2%; in data set [2], 48.4%.
On to `CC(=O)/C(=C\c1ccccc1)CC(=O)O` [LEVULINIC ACID,  3-BENZYLIDENYL-], for which the figures for the residual activity in data set [1] and in data set [2] were 134.7% and 110.1%, respectively.
The matching figures for `COc1ccc2c(=O)c(CC(=O)O)coc2c1` [ANHYDROBRAZILIC ACID]: 56.09% and 76.12%.
Regarding `CN1CCC(=C2c3ccccc3Sc3ccccc32)CC1.O=C(O)/C=C\C(=O)O` [PIMETHIXENE MALEATE], the residual activity was determined as 83.52% in data set [1] and 104.8% in data set [2].
On the same counts, the results for `CC(C)c1c(O)ccc2c1CC[C@H]1[C@@](C)(CO)CCC[C@]21C` [19-HYDROXYTOTAROL] are 15.89% and 20.52%.
Regarding `C=C(C)[C@H]1Cc2c(ccc3c(=O)c4c(oc23)COc2cc(OC)c(OC)cc2-4)O1` [DEHYDROROTENONE], the residual activity in data set [1] is 113.5%; in data set [2] it was 92.82%.
The matching figures for `COc1cc(OC)c2c(c1Cl)O[C@@]1(C(=O)CC(=O)C[C@H]1C)C2=O`: 81.69% and 85.63%.
As to `COc1ccc(C(c2ccc(OC)cc2)C(Cl)(Cl)Cl)cc1` [METHOXYCHLOR], the residual activity is given as 114% in data set [1] and 102.3% in data set [2].
With `CC1=NS(=O)(=O)c2cc(Cl)ccc2N1` [DIAZOXIDE], the residual activity in data set [1] came out at 91.81%; in data set [2], 91.61%.
Regarding `CCC(=O)OCC(=O)[C@]1(OC(=O)CC)[C@H](C)C[C@H]2[C@@H]3CCC4=CC(=O)C=C[C@]4(C)[C@@]3(F)[C@@H](O)C[C@]21C`, the residual activity in data set [1] turned out to be 76.42%; in data set [2], 77.45%.
On the same counts, the results for `CCCCN(CC)c1c([N+](=O)[O-])cc(C(F)(F)F)cc1[N+](=O)[O-]` [BENFLURALIN] are 96.31% and 100.4%.
As to `C=C(C)CCC[C@@H](C)CCOC(C)=O`, the residual activity in data set [1] turned out to be 104.4%; in data set [2] it was 112.9%.
With `COc1cc2c(c(OC)c1OC)-c1ccc(OC)c(=O)cc1[C@@H](NC(C)=O)CC2` [COLCHICINE], the residual activity is 75.12% in data set [1] and 101% in data set [2].
Take `Oc1ccc(Cl)cc1` [PARACHLOROPHENOL]: the residual activity was determined as 89.66% in data set [1] and 100.4% in data set [2].
In the case of `Cc1cc(O)c2c(c1)C(=O)c1cccc(O)c1C2=O` [CHRYSOPHANOL], the figures for the residual activity in data set [1] and in data set [2] were 128.6% and 93.35%, respectively.
The matching figures for `O=c1c(O)c(-c2ccc(O)c(O)c2)oc2cc(O)ccc12` [FISETIN]: 56.32% and 108.5%.
Turning to `C/C1=C\CC/C(C)=C/CC(C)(C)/C=C/C1` [ALPHA-HUMULONE], the values for the residual activity in data set [1] and in data set [2] were 112.4% and 109.1%, respectively.
As to `CC(=O)Oc1ccc(-c2cc(=O)c3c(OC(C)=O)cc(OC(C)=O)cc3o2)cc1` [APIGENIN TRIACETATE], the residual activity in data set [1] is reported as 92.99%; in data set [2], 94.69%.
With `O=c1ccc2ccc(O)c(O)c2o1` [DAPHNETIN], the residual activity worked out at 66.34% in data set [1] and 94.36% in data set [2].
Turning to `CN1Cc2c(ccc3c2OCO3)C2C(O)Cc3cc4c(cc3C21)OCO4` (stereo not drawn) [CHELIDONINE (+)], the residual activity in data set [1] was determined as 59.5%; in data set [2], 82.29%.
The matching figures for `C#CCN(C)Cc1ccccc1.Cl` [PARGYLINE HYDROCHLORIDE]: 99.32% and 133.9%.
For the compound `CCCCCC1C(=O)CCC1CC(=O)O` (centres undefined) [DIHYDROJASMONIC ACID], the residual activity is 113.7% in data set [1] and 102.5% in data set [2].
On to `COc1ccc2c(c1)OC/C(=C/c1ccc(OC)c(OC)c1)C2=O` [SAPPANONE A TRIMETHYL ETHER], for which the residual activity in data set [1] is reported as 112%; in data set [2], 100.7%.
With `CN1C(=O)CCS(=O)(=O)C1c1ccc(Cl)cc1` (centres undefined) [CHLORMEZANONE], the residual activity stood at 97.47% in data set [1] and 92% in data set [2].
On to `COc1cc(-c2coc3cc(OCc4ccccc4)c(OC)c(O)c3c2=O)cc(O)c1OC` [IRIGENIN, 7-BENZYL ETHER], for which the figures for the residual activity in data set [1] and in data set [2] were 60.69% and 36.98%, respectively.
The matching figures for `Cc1cc(OC(=O)c2c(C)cc(O)cc2O)cc(O)c1C(=O)O` [LECANORIC ACID]: 61.21% and 60.79%.
The matching figures for `CCC(=O)OCC(=O)[C@@]1(OC(=O)CC)[C@@H](C)C[C@H]2[C@@H]3CCC4=CC(=O)C=C[C@]4(C)[C@@]3(Cl)[C@@H](O)C[C@@]21C` [BECLOMETHASONE DIPROPIONATE]: 41.53% and 14.78%.
As for `CC1(C)C=Cc2c(cc3occ(-c4ccc5c(c4)OCO5)c(=O)c3c2O)O1` [ROBUSTONE], the residual activity in data set [1] is reported as 102.3%; in data set [2] it was 96.96%.
For `Cc1cc(C(C)(C)C)cc(C)c1CC1=NCCN1.Cl` [XYLOMETAZOLINE HYDROCHLORIDE], the residual activity was 86.29% in data set [1] and 99.17% in data set [2].
As for `N=C(N)NC(=O)c1nc(Cl)c(N2CCCCCC2)nc1N` [N,N-HEXAMETHYLENEAMILORIDE], the results for the residual activity in data set [1] and in data set [2] were 122.5% and 162.9%, respectively.
The matching figures for `CC(C)CCC[C@@H](C)[C@H]1CC[C@H]2C3=CC[C@H]4C[C@@H](O)CC[C@]4(C)[C@H]3CC[C@]12C`: 85.16% and 99.24%.
Turning to `O=C(O)c1ccccc1Nc1cccc(C(F)(F)F)c1` [FLUFENAMIC ACID], the residual activity in data set [1] is recorded as 211.3%; in data set [2], 64.03%.
On to `C=CC1=C(C)c2cc3[nH]c(cc4nc(cc5[nH]c(cc1n2)c(C)c5CCC(=O)O)C(CCC(=O)O)=C4C)c(C)c3C=C` [PROTOPORPHYRIN], for which the residual activity in data set [1] is 49.56%; in data set [2], 94.63%.
As to `NC(=O)N/N=C/c1ccc([N+](=O)[O-])o1` [NITROFURAZONE], the values for the residual activity in data set [1] and in data set [2] were 93.46% and 98.78%, respectively.
Take `CCOc1ccc(NC(C)=O)cc1` [PHENACETIN]: the residual activity amounted to 55.67% in data set [1] and 98.3% in data set [2].
As for `CC(=O)O.N=C(N)N/N=C/c1c(Cl)cccc1Cl` [GUANABENZ ACETATE], the residual activity in data set [1] was found to be 90.81%; in data set [2], 87.6%.
Consider `NC(=O)NCCC[C@H](N)C(=O)O` [L-CITRULLINE], for which the residual activity in data set [1] came to 135.1%; in data set [2], 119.7%.
Regarding `O=C1CC(c2ccccc2)Oc2ccccc21` (centres undefined) [FLAVANONE], the residual activity in data set [1] amounted to 76.99%; in data set [2], 79.68%.
With `C[C@]12CC[C@@H]3c4ccc(O)cc4CC[C@H]3[C@@H]1CC[C@@H]2O` [ESTRADIOL], the residual activity in data set [1] is 125.9%; in data set [2], 131.9%.
The matching figures for `COc1cc2c(c(OC)c1OC)-c1ccc(=O)c(O)cc1[C@@H](NC(C)=O)CC2` [COLCHICEINE]: 124% and 109.6%.

The term residual activity denotes the signal under treatment as a percentage of the control signal.
